The source of these data is patent US9657348B2, “Method of screening compounds for the treatment of diabetes” (ATROGI AB, priority 2013, dated 2017).

The test system of series [1] is human skeletal muscle cells (SKMC). The experiment in a line: 3H-2-deoxyglucose uptake in human skeletal muscle cells. The format is cell-based. The conditions noted are these: FIG. 1C. Here is the method: (§1) Soleus muscles were dissected from Sprague-Dawley rats and suspended in Krebs-Henseleit bicarbonate (KHB) buffer (118.5 mM NaCl, 4.7 mM KCl, 1.2 mM KH2PO4, 25 mM NaHCO3, 2.5 mM CaCl2, 1.2 mM MgSO4, 5 mM HEPES) in organ baths containing 30 ml KHB containing 5 mM glucose and 15 mM mannitol, bubbled with 95% O2/5% CO2 (pH 7.4) and maintained at 37° C. […] Muscles were rinsed with KHB (20 mM mannitol) for 10 min, then incubated in KHB (8 mM 3-O-methylglucose and 12 mM mannitol with 438 μCi/mmol 3-O-methyl[3H]glucose (80.2 Ci/mmol; PerkinElmer) and 42 μCi/mmol [^14C] mannitol (58.8 mCi/mmol; PerkinElmer, USA)) for 12 min. Muscles were then rinsed with PBS and frozen in liquid nitrogen, weighed and dissolved in 1 mL of 0.5M NaOH at 60° C. ^3H and ^14C were measured by liquid scintillation counting. Total muscle 3-O-methylglucose and extracellular space were measured as described previously (Zierath 1995). Intracellular 3-O-methylglucose accumulation was calculated by: (Total muscle 3-O-methylglucose)−(extracellular 3-O-methylglucose)=intracellular 3-O-methylglucose. This was then expressed as a rate of 3-O-methylglucose transport per mL of intracellular water per hour. Glucose uptake was measured in L6 skeletal muscle cells and in human skeletal muscle cells (SKMC) grown in 12-well plates using ^3H-2-deoxyglucose as previously described (Nevzorova et al. 2002) with minor modifications. […]

For a further series, the system named is cAMP. In words: cAMP content over time in L6 myotubes. Format: cell-based, rat. The conditions noted are these: for maximum difference in cAMP versus cells not brought into contact (Δ1): L6 myotubes. Here is the method: Further, to determine whether contacting BRL37344 causes a response of a classical secondary messenger in cells with which it is brought into contact, the concentration of cAMP was measured during a period of time. As a reference, cAMP in cells not brought into contact was measured. In FIG. 9A the difference Δ1 for BRL37344 is plotted, and the maximum difference is about 8 pmol. […] The calculated value of r″ therefore is 8/45=0.18.

In another series the test system is GLUT4. In words: GLUT4 translocation to plasma membrane by immunocytochemistry in L6 cells. Format: cell-based, rat. The conditions noted are these: non-permeabilized L6 myoblasts; 1 μM, 2 h.
In a further series the test system is soleus muscle. In words: 3-O-methylglucose transport (glucose uptake) in isolated soleus muscle. As to conditions: soleus muscle from rat; FIG. 1A. The format is cell-based. Here is the method: as §1
In series [2] the test system is L6 skeletal muscle cells. The experiment in a line: 3H-2-deoxyglucose uptake in L6 myotubes, with or without inhibitors or GRK2 siRNA. Format: cell-based, rat. The conditions noted are these: for glucose uptake / effect of GRK2 knock-down with siRNA on glucose uptake stimulated by the substance / basal glucose uptake in presence of inhibitor / insulin- and GPCR-stimulated glucose uptake in presence of inhibitor: L6 myotubes; for glucose uptake: stimulation with drug; for effect of GRK2 knock-down with siRNA on glucose uptake stimulated by the substance: FIG. 7, FIG. 9B; for basal glucose uptake in presence of inhibitor / insulin- and GPCR-stimulated glucose uptake in presence of inhibitor: inhibitor pretreatment 30 min; for insulin- and GPCR-stimulated glucose uptake in presence of inhibitor: then insulin or GPCR stimulation. The method, then:
Cells were grown as in Example 1. Cells were pretreated with inhibitors for 30 min and then exposed to GPCR stimulation.
GRK2 siRNA constructs (Sigma Aldrich) as well as control sequence was transfected into L6 mytoubes by electroporation. Differentiated L6 cells were detached by washing in PBS followed by 5 minutes of incubation in trypsin/EDTA (0.1% trypsin w/v, 0.02% EDTA w/v). The detached cells were transferred to Eppendorf tubes and centrifugation at 1000×g for 3 minutes was performed before supernatant was removed and the cells were resuspended in 20 μl/well of SE Cell Line Nucleofector® (Lonza) and 100 nM siRNA. Cells were transferred to a 16-well microcuvette plate (Lonza) and were electroporated in a 4D-Nucleofector® (Lonza). 80 μl of pre-warmed RPMI1640 medium were added to the each microcuvette well for 5 min before the cells were transferred to the Eppendorf tubes containing culture media. Cells were serum starved over night and glucose uptake measured 24 hours after transfection.
Glucose uptake was detected by ^3H-2-dexoy-glucose as previously described (Nevzorova 2002), with minor modifications. Differentiated L6-myotubes were serum-starved over night in media containing 0.5% fatty-acid free BSA and stimulated with agonists for totally 2 h, unless otherwise stated. Cells were exposed to 50 nM ^3H-2-dexoy-glucose in glucose free media for 6-10 minutes before the experiment was ended by washing the cells in ice-cold PBS or glucose free media. Cells were lysed in 0.2 M NaOH for 1 h in 60° C., mixed with scintillation buffer (Emulsifier Safe, Perkin Elmer) and radioactivity detected in a β-counter (Tri-Carb 2800TR, Perkin Elmer).

The test system of series [3] is Human prostate carcinoma (22rv1) cells. In words: Glucose uptake in 22rv1 cells with or without GRK2 siRNA. The format is cell-based. The conditions noted are these: FIG. 8. Here is the method:
Human prostate carcinoma (22rv1) cells were grown for 7 days in RPMI-1640 medium. […] At day 7, 22rv1 cells were treated with siRNA. siRNA constructs GRK2 (Sigma Aldrich) as well as control sequence were transfected into 22rv1 cells by lipofectamine (Life Technologies Corp.) according to the manufacturer's protocol. Cells were serum starved over night and glucose uptake was measured 24 hours after transfection. Cells were stimulated with drugs for totally 2 h, unless otherwise stated.

Series [4] deals with L6 skeletal muscle cells. The experiment in a line: Cell viability of L6 cells under transcription/translation inhibitor.

“Also recorded” adds a separate entry of the source. Starred links: 1 amine or outer side, 2 acyl side, 3 side chain; linkers in the order of their positions; H or OH if unused. Positions of bridges follow the written chain, without caps; N, C: chain ends. Non-standard residues stand in square brackets, D forms with d. Residues, ends and D or L forms follow the SMILES beside them. Chains are numbered I, II in the order given. Actinocin(9to1) = Cc1c2oc3c(C)ccc(C(=O)[*:1])c3nc-2c(C(=O)[*:2])c(N)c1=O; NMeV = CN[C@H](C(=O)O)C(C)C; Sar = CNCC(=O)O

As to `CC(C)NCC(O)c1ccc(O)c(O)c1` (racemic) [isoproterenol, (RS)-4-[1-hydroxy-2-(isopropylamino)ethyl]benzene-1,2-diol], the glucose uptake entry (in series [1]; with soleus muscle) was “leads to glucose uptake” each time. Also, in the series with cAMP (FIG. 9A), the “maximum difference in cAMP versus cells not brought into contact (Δ1)” value is recorded as “about 45 pmol”. In addition, the “GLUT4 recruitment to the plasma membrane” value in the series on GLUT4 is recorded as “GLUT4 recruitment to the plasma membrane to the same extent”.

Consider `C[C@H](Cc1ccc(OCC(=O)O)cc1)NC[C@H](O)c1cccc(Cl)c1` (relative stereo) [BRL37344, (±)-(R*,R*)-[4-[2-[[2-(3-chlorophenyl)-2-hydroxy-ethyl]amino]propyl]phenoxy]acetic acid], for which the “ratio r″ (cAMP response of compound / cAMP response of isoproterenol)” value in the series on cAMP (8/45) was 0.18. For the same compound, the “maximum difference in cAMP versus cells not brought into contact (Δ1)” value in the series on cAMP (FIG. 9A) is given as “about 8 pmol”. The “contents of cAMP over basal” value in the series with cAMP (skeletal muscle cells (L6 myotubes), all time points, FIG. 9A) was “did not significantly increase”. Further, in the series on L6 skeletal muscle cells [2] ((untransfected) cells expressing GRK2, FIG. 9B), the “glucose uptake in % of the glucose uptake of the same cells brought into contact with vehicle only” value is on record as 175%. In addition, in the series with L6 skeletal muscle cells [2], the glucose uptake result is “stimulate glucose uptake” and the “effect of GRK2 knock-down with siRNA on glucose uptake stimulated by the substance” value is listed as “significantly inhibited”. Moreover, the “glucose uptake in % of vehicle” value in the series with L6 skeletal muscle cells [2] (transfected (GRK2 siRNA) cells not expressing GRK, FIG. 9B) was determined as 125%.

For `CS(=O)(=O)Nc1c(O)ccc2c1CCCC2C1=NCCN1` (centres unmarked) [A61603], in series [3], the “effect of GRK2 down-regulation with siRNA on glucose uptake stimulated by the substance” value (shortened to “effect of GRK2 down-regulation”) was “inhibited”.

Take `O=C(CCc1ccc(O)cc1)c1c(O)cc(O)cc1O` [Phloretin, phloretin]: in the series on L6 skeletal muscle cells [2], the “basal glucose uptake in presence of inhibitor” value is listed as “blocked basal glucose uptake”; the “insulin- and GPCR-stimulated glucose uptake in presence of inhibitor” value is recorded as “significantly reduced”.

As for `Cc1c2oc3c(C)ccc(C(=O)N[C@@H]4C(=O)N[C@H](C(C)C)C(=O)N5CCC[C@H]5C(=O)N(C)CC(=O)N(C)[C@@H](C(C)C)C(=O)O[C@@H]4C)c3nc-2c(C(=O)N[C@@H]2C(=O)N[C@H](C(C)C)C(=O)N3CCC[C@H]3C(=O)N(C)CC(=O)N(C)[C@@H](C(C)C)C(=O)O[C@@H]2C)c(N)c1=O` [actinomycin, Actinomycin D] (I: T[dV]P[Sar][NMeV] / II: T[dV]P[Sar][NMeV]; ester I:1-I:C, II:1-II:C; linker I:N-II:N via Actinocin(9to1)), in the series on L6 skeletal muscle cells [2], the “basal glucose uptake in presence of inhibitor” value is “did not significantly affect”; the “insulin- and GPCR-stimulated glucose uptake in presence of inhibitor” value is “did not significantly affect”. In addition, in the series with L6 skeletal muscle cells [4], the cell viability result was “did not significantly affect”.

In the case of `C[C@@H]1C[C@@H]([C@H](O)CC2CC(=O)NC(=O)C2)C(=O)[C@@H](C)C1` [cyclohexamide], in the series on L6 skeletal muscle cells [2], the “basal glucose uptake in presence of inhibitor” value is reported as “did not affect”; the “insulin- and GPCR-stimulated glucose uptake in presence of inhibitor” value is reported as “did not affect”.

In the case of `C=C1[C@@H](C)[C@H]2[C@H](Cc3ccccc3)NC(=O)[C@]23OC(=O)/C=C/[C@H](O)CCC[C@@H](C)C/C=C/[C@H]3[C@@H]1O` [cytochalasin B], in the series on L6 skeletal muscle cells [2], the “basal glucose uptake in presence of inhibitor” value was “reduced basal glucose uptake”; the “insulin- and GPCR-stimulated glucose uptake in presence of inhibitor” value is given as “reduced”.

For `CC(C)(C)NC(=O)[C@@H]1CN(Cc2cccnc2)CCN1C[C@@H](O)C[C@@H](Cc1ccccc1)C(=O)N[C@H]1c2ccccc2C[C@H]1O` [indinavir], in the series on L6 skeletal muscle cells [2], the “basal glucose uptake in presence of inhibitor” value is reported as “blocked basal glucose uptake”; the “insulin- and GPCR-stimulated glucose uptake in presence of inhibitor” value is given as “significantly reduced”.

For `NC[C@H](O)c1ccc(O)c(O)c1` [norepinephrine (NA), norepinephrine], the “effect of GRK2 down-regulation” value in series [3] is recorded as “inhibited”.

For the compound `Cc1cc(C(C)(C)C)c(O)c(C)c1CC1=NCCN1` [oxymetazoline], in series [3], the “effect of GRK2 down-regulation” value is on record as “inhibited”.

With insulin, the “effect of GRK2 down-regulation” value in series [3] was “does not inhibit”. The “GLUT4 recruitment to the plasma membrane” value in the series with GLUT4 is reported as “GLUT4 recruitment to the plasma membrane to the same extent”. Moreover, in the series on L6 skeletal muscle cells [2], the glucose uptake result was “increased glucose uptake” and the “effect of GRK2 knock-down with siRNA on glucose uptake stimulated by the substance” value is recorded as “could not be blocked; also recorded: does not inhibit”.
